PubChem BioAssay AID1645865 (Buhrlage Lab, Dana-Farber Cancer Institute and Novartis …, 2021)
Calls of active or inactive are those of the source.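 Rule for the calls: active = maximal inhibition of the USP30 enzyme reaching 30% or more across the dose series; inactive = the rest.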

What follows are compounds tested against Ubiquitin carboxyl-terminal hydrolase 30 (Homo sapiens) (UniProt Q70CQ3) (assay: inhibitors of ubiquitin-specific protease 30 deubiquitylating enzyme, concentration dependence, in vitro biochemical, validation of primary hits (AID 1645865)). Settings: purified USP30, Ub-rhodamine cleavage, fluorescence, 2 h.
Chain of Ubiquitin carboxyl-terminal hydrolase 30 (Homo sapiens) (Q70CQ3 whole entry, looked up): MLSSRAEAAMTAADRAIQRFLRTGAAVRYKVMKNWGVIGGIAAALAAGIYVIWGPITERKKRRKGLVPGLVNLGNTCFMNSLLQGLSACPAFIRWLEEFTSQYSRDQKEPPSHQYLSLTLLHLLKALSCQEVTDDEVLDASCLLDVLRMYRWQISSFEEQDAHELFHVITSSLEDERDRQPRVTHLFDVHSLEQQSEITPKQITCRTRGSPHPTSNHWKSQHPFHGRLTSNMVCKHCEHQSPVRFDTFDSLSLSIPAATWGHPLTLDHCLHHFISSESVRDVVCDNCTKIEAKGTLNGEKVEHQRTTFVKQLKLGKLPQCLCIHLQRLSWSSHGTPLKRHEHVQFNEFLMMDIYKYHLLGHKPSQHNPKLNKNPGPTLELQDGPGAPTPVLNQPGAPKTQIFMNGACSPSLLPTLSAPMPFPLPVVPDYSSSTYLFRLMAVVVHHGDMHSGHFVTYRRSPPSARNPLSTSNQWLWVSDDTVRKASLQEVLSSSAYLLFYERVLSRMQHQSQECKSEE

Row | SMILES | IC50
1 | CCC(C)Oc1cccc(C(=O)Nc2ccc(CN3CCOCC3)cc2)c1 (configuration not stated) | > 50 µM (inactive)
2 | COc1ccc2ncc3c(-c4ccc(C)cc4)nn(-c4ccc(F)cc4)c3c2c1 | 1.82 µM
3 | COc1ccc(CCNc2c(-c3ccccc3O)nc3cnccn23)cc1OC | > 50 µM (inactive)
4 | COc1cnc(CSc2ncccn2)cc1OCC(=O)Nc1cc(C)ccc1C | 41.3 µM
5 | COc1cccc2c1NC(=O)C21CCN(C(=O)Nc2cccc3ccccc23)CC1 | > 50 µM (inactive)
6 | CCc1cc(=O)n(CC(=O)Nc2cc(C)ccc2OC)c(N2CCOCC2)n1 | 26 µM
7 | CC1(C)C[C@@H](O)[C@]2(C)CC[C@]3(C)C(=CCC4[C@@]5(C)CC[C@H](O)[C@](C)(CO)[C@@H]5CC[C@]43C)[C@@H]2C1 (some centres not stated) | 3.18 µM
8 | COc1ccc(C2SCC(=O)Nc3c2c(=O)[nH]n3C2CCCCCC2)cc1 (configuration not stated) | 23.8 µM
9 | CCC1=C(c2ccc(C)cc2)S(=O)(=O)NC1=NCC(=O)NCc1ccccc1F | > 50 µM (inactive)
10 | CC(=O)N1CCc2cc(S(=O)(=O)NCc3ccc(C)cc3)ccc21 | > 50 µM (inactive)
11 | CC[C@@]1(O)C[C@H](OC2CC(N(C)C)C(OC3CC(O)C(OC4CCC(=O)C(C)O4)C(C)O3)C(C)O2)c2c(cc3c(c2O)C(=O)c2c(O)ccc(O)c2C3=O)[C@H]1C(=O)OC (some centres not stated) | > 50 µM (inactive)
12 | Cn1c(=O)c2c(ncn2CC(=O)NC2CCCc3ccccc32)n(C)c1=O (configuration not stated) | > 50 µM (inactive)
13 | CC1=C(c2ccc(C)c(C)c2)S(=O)(=O)NC1=NCC(=O)NCCCc1ccccc1 | 19.7 µM
14 | O=C(COc1ccc2c(-c3ccccc3)cc(=O)oc2c1)Nc1cccnc1 | 1.3 µM
15 | Cc1noc(-c2ccc(N3CCCC(C(=O)NCc4ccc(F)cc4)C3)nc2)n1 (configuration not stated) | 14.6 µM
16 | COc1ccc(C(=O)Nc2ccc3c(c2)Sc2ncccc2C(=O)N3C)cn1 | > 50 µM (inactive)
17 | Cc1ccc(C(=O)Nc2nc3n(n2)C(c2ccccc2)CC(=O)N3)cc1 (configuration not stated) | 24.4 µM
18 | O=C(Nc1ncc2c(n1)-c1ccccc1CC2)C1CC1 | 17.5 µM
19 | COc1cc(C(=O)NC(Cc2ccccc2)c2nc3ccccc3[nH]2)cc(OC)c1OC (configuration not stated) | 2.06 µM

Row | SMILES | IC50
20 | CCc1ccc(-n2c(=O)c3ccccc3n(CC(=O)NCCC3=CCCCC3)c2=O)cc1 | 6.68 µM
21 | CCCC[C@@H](C)/C=C(C)/C=C(\C)C(=O)NC1=C[C@](O)(/C=C/C=C/C=C/C(=O)NC2=C(O)CCC2=O)[C@@H]2O[C@@H]2C1=O | 4.76 µM
22 | CC1=C(c2ccc(F)cc2)S(=O)(=O)NC1=NCC(=O)Nc1ccc(F)cc1F | 23.4 µM
23 | Cc1ccc(NC(=O)c2ccc3c(c2)N(S(C)(=O)=O)CC3)cc1 | 34 µM
24 | Cn1c(-c2nnc(SCC(=O)NCCc3ccccc3)o2)cc2ccccc21 | 7 µM
25 | COc1ccccc1C(=O)N1CCC(S(=O)(=O)c2ccc(-c3ccco3)cc2)CC1 | > 50 µM (inactive)
26 | Cc1ccc(-n2nc(C)c3c2NC(=O)CC3C(=O)c2cc3ccccc3o2)cc1C (configuration not stated) | > 50 µM (inactive)
27 | COc1ccc(C(=O)Nc2ccccc2C(=O)NCc2ccccc2)cc1 | 30.4 µM
28 | CC(=O)Nc1ccc(-n2cnc(C(=O)NC(C)c3ccccc3)c2)nc1 (configuration not stated) | 25.8 µM
29 | Cc1ccc(C(C)C)cc1OCCOCCN1CCNCC1 | > 50 µM (inactive)
30 | O=C(CSc1ncnc2c1oc1ccccc12)Nc1ccc2c(c1)OCCO2 | 18.7 µM
31 | Cc1ccc(C)c(Nc2cc(C)nc3nc(-c4ccco4)nn23)c1 | > 50 µM (inactive)
32 | CO[C@H]1CC[C@H](O)c2c1oc1c3c4c(c(O)c1c2=O)-c1c(cc2c(Cl)c(C)n(N)c(=O)c2c1O)C[C@@H]4OCO3 | 47.3 µM
33 | O=C(CC(C(=O)Nc1ccc2c(c1)OCO2)C(=O)c1ccccc1)Nc1ccc(Cl)cc1F (configuration not stated) | 2.61 µM
34 | O=C(CCCCn1c(=O)c2ccccc2n(CC(=O)Nc2ccc(F)c(Cl)c2)c1=O)NCc1ccco1 | > 50 µM (inactive)
35 | COc1cc(OC)c2c(c1)C(=O)C1=C(COC(C)(O)C1)C2=O (configuration not stated) | > 50 µM (inactive)
36 | COc1cc(NC(=O)COC(=O)Cn2cnc3ccccc32)cc(OC)c1 | > 50 µM (inactive)
37 | CCC[C@H]1O[C@@H]2CC(=O)O[C@@H]2C2=C1C(=O)c1c(O)cccc1C2=O | > 50 µM (inactive)
